# Measurements taken from US12508261B2, “Methods of treating depression with vortioxetine” (Rundle Research LLC, priority 2017, dated 2025).
# Several values for one entry are separate records, joined by “and”; a condition that tells them apart may be missing. Equal values may be shown once. Read-outs that look alike come from different tables or passages of the source.
# Tests used:
# [1] = TRINTELLIX label; cited from earlier work
# [2] = Clinical pharmacokinetic study (RUN-001): vortioxetine 5 mg once daily for 29 days, then 28 days washout, obese vs normal-weight subjects; assay type: in vivo, human; conditions: for Observed Clss: (5 mg/day)/AUC29; for Predicted CLss: (5 mg/day)/Css; for Observed accumulation ratio: AUC29/AUC1; for Predicted accumulation ratio: from elimination rate constant and 1 day dose interval
# Description: To test if the obese patients would require different washout guidelines for preventing serotonin syndrome, 16 obese subjects (BMI≥35) and 13 normal subjects (BMI<25) completed a clinical trial where they were administered daily with low doses (5 mg/day) of vortioxetine for 29 days in a controlled study. All subjects were subsequently tracked for 28 days after discontinuing vortioxetine on day 29. Blood samples were collected and processed according to standard techniques.
# The normal-weight control group consisted of healthy male and female volunteers aged 18 to 45 years. Their body mass index (BMI) values fell in the range of […]. […] Normal weight and obese subjects were matched as closely as possible for gender and age.
# CYP2D6 genotype status was determined from whole blood samples drawn from each subject. Known alleles of CYP2D6 were tested for, as well as the presence of gene duplications (LabCorp, Inc.). CYP2D6 metabolizer status was categorized as ultra-rapid, extensive, intermediate, or poor. Ultra-rapid and poor metabolizers were not included in the study.
# All subjects received vortioxetine, 5 mg once daily in the morning, for 29 days. The first dose was on Day 1, and the last dose was on Day 29. Blood sampling continued for another 28 days after the last dose, through Day 57.
# Subjects spent 12 hours in the study unit on Day 1 (first dose of vortioxetine) and Day 29 (last dose of vortioxetine). On those two study days, venous blood samples (7 mL each) were drawn prior to the dose of vortioxetine, and at 1, 2, 4, 6, 8, 10, and 12 hours after dosage.
# During the 29-day period of daily vortioxetine administration, subjects returned to the study unit in the morning of the following study days: 2, 3, 5, 8, 10, 12, 15, 17, 19, 22, 24, 26, and 29. At each visit, a single venous blood sample (7 mL) was drawn before the daily dose of vortioxetine. Subjects underwent a brief interview to assess subjective effects and possible adverse events. Subjects were then discharged until the next scheduled visit. They were provided with vortioxetine doses sufficient for daily morning administration until the next visit. No more than 2 consecutive doses of vortioxetine were taken on an outpatient basis.
# On Day 29 (the final dose of vortioxetine), subjects spent 12 hours in the study unit as described above. They returned to the study unit for a single blood sample on the mornings of the following Days: 30, 31, 33, 36, 38, 40, 43, 45, 47, 50, 52, 54, and 57.
# Plasma concentrations of vortioxetine were determined by liquid chromatography—mass spectrometry using a Shimadzu HPLC system coupled to a Sciex API-4000 mass spectrometer.
# The internal standard (vortioxetine-d8) was added to calibration standards, quality control samples, and unknown study samples. All samples were extracted with methyl tert-butyl ether. The organic phase was separated and evaporated to dryness; the reconstituted extract was injected into the HPLC system. The HPLC column was a Unison UK-C18, 50 mm×2 mm, 3 micron particle size. The mobile phase consisted of an organic component (0.1% formic acid in acetonitrile) and an aqueous component (0.1% formic acid and 2 mM ammonium acetate in water). This was delivered in gradient mode at a net flow rate of 0.4 mL/min, with the organic fraction varying from 40% to 96%. m/z monitored were: 299.1/150.1 for vortioxetine, and 307.1/153 for vortioxetine-d8. The limit of quantitation was 0.1 ng/mL. […] All samples from a given study subject were extracted and analyzed at the same time using the same calibration standards.
# Based on the clinical trials discussed above, several equations were derived which allow an individual to calculate the washout period (i.e., the time between stopping vortioxetine and initiating treatment with an MAOI). Data points to consisted of pre-dose plasma vortioxetine concentration (C) on each study day (t), both during (Days 1-29) and after (Days 30-57) the period of vortioxetine administration. […]
# [3] = Normal-weight subjects, mean ± SD
smiles,measurement,setting,value
Cc1ccc(Sc2ccccc2N2CCNCC2)c(C)c1 [vortioxetine],time to achieve steady-state plasma concentrations,[1],≤ 2 weeks
same,Css,"[2]; Normal-weight subjects, 5 mg/day, mean ± SD",3.75 ± 1.72 ng/mL
same,Observed Clss,[2]; [3],903 ± 450 mL/min
same,Predicted CLss,[2]; [3],1172 ± 679 mL/min
same,Observed accumulation ratio,[2]; [3],4.46 ± 1.10
same,Predicted accumulation ratio,[2]; [3],3.72 ± 0.77
same,Css,"[2]; Obese subjects, 5 mg/day, mean ± SD",4.23 ± 1.68 ng/mL
same,Observed Clss,"[2]; Obese subjects, mean ± SD",809 ± 331 mL/min
same,Predicted CLss,"[2]; Obese subjects, mean ± SD",935 ± 362 mL/min
same,Observed accumulation ratio,"[2]; Obese subjects, mean ± SD",5.24 ± 1.86
same,Predicted accumulation ratio,"[2]; Obese subjects, mean ± SD",5.22 ± 1.75
same,half-life,"[2]; both sexes, human, plasma, 5 mg/day, Normal-weight subjects, 5 mg/day, mean ± SD, read-out: Washout half-life (converted)",2.21 days
same,half-life,"[2]; both sexes, human, plasma, 5 mg/day, Obese subjects (BMI>=35), 5 mg/day, mean ± SD, read-out: Washout half-life (converted)",3.26 days
same,half-life,"[2]; both sexes, human, plasma, 5 mg/day, normal weight patients, read-out: elimination half-life (converted)",2.21 days
same,concentration at 504 h,"[2]; both sexes, human, plasma, 5 mg/day, normal patients (non-obese and/or normal CYP2D6 metabolizers), read-out: vortioxetine remaining in the blood plasma 21 days after stopping",0.54 ng/mL
same,AUC(0-t),"[2]; both sexes, human, plasma, oral, 5 mg/day, Normal-weight subjects, 5 mg/day, mean ± SD, read-out: AUC0-24 Day 1",24.8 ± 8.1 ng·h/mL
same,AUC(0-t),"[2]; both sexes, human, plasma, oral, 5 mg/day, Normal-weight subjects, 5 mg/day, mean ± SD, read-out: AUC0-24 Day 29",112 ± 48.7 ng·h/mL
same,half-life,"[2]; both sexes, human, plasma, oral, 5 mg/day, Obese subjects (BMI>=35), 5 mg/day, mean ± SD, read-out: Accumulation half-life (converted)",3.32 days
same,AUC(0-t),"[2]; both sexes, human, plasma, oral, 5 mg/day, Obese subjects, 5 mg/day, mean ± SD, read-out: AUC0-24 Day 1",22.6 ± 4.2 ng·h/mL
same,AUC(0-t),"[2]; both sexes, human, plasma, oral, 5 mg/day, Obese subjects, 5 mg/day, mean ± SD, read-out: AUC0-24 Day 29",119 ± 46.3 ng·h/mL
same,half-life,"[2]; both sexes, human, plasma, oral, 5 mg/day, normal subjects, read-out: plasma elimination half-life, range",1.25 to 3.33 days
same,half-life,"[2]; both sexes, human, plasma, oral, 5 mg/day, obese subjects, read-out: plasma elimination half-life, range",2.25 to 7.12 days
same,half-life,"[2]; human, plasma, 5 mg/day, one obese subject, CYP2D6 intermediate metabolizer (FIG. 8), read-out: accumulation half-life (converted)",7.2 days
same,half-life,"[2]; human, plasma, 5 mg/day, one obese subject, CYP2D6 intermediate metabolizer (FIG. 8), read-out: washout half-life (converted)",7 days
same,half-life,"[2]; human, plasma, im, 5 mg/day, individual subject, Normal cohort (BMI<25), IM, read-out: T1/2 (converted)",2.99 days
same,half-life,"[2]; human, plasma, im, 5 mg/day, individual subject, Obese cohort (BMI>=35), IM, read-out: T1/2 (converted)",7.12 days
same,Css,"[2]; individual subject, Normal cohort (BMI<25), IM, 5 mg/day",7.8 ng/mL
same,Css,"[2]; individual subject, Obese cohort (BMI>=35), IM, 5 mg/day",9.27 ng/mL
same,Css,"[2]; individual subjects, Normal cohort (BMI<25), EM, 5 mg/day",2.01 ng/mL and 3.31 ng/mL and 3.29 ng/mL and 3.51 ng/mL and 4.06 ng/mL and 3.21 ng/mL and 1.4 ng/mL and 1.54 ng/mL and 5.24 ng/mL and 5.42 ng/mL and 4.14 ng/mL and 3.13 ng/mL
same,Css,"[2]; individual subjects, Obese cohort (BMI>=35), EM, 5 mg/day",4.32 ng/mL and 4.58 ng/mL and 2.08 ng/mL and 4.57 ng/mL and 1.97 ng/mL and 3.44 ng/mL and 4.8 ng/mL and 4.75 ng/mL and 4.1 ng/mL and 3.22 ng/mL and 3.39 ng/mL and 3.38 ng/mL and 4.66 ng/mL and 4.85 ng/mL
same,washout period needed to attain about 0.14% of the initial plasma concentration,"[2]; obese individuals, Equation 2",31.5 days
same,time with measurable drug plasma concentrations after discontinuing vortioxetine,"[2]; obese subjects, 5 mg/day",at least 28 days
